Data as given in patent US20200215065A1, “COMPOSITIONS AND METHOD FOR TREATING PULMONARY HYPERTENSION” (THE REGENTS OF THE UNIVERSITY OF COLORADO, a body corporate, priority 2017, published 2020).
Converted amounts (≈) assume the structure as drawn.

Tests used:
[1] = tested on: hypoxic pulmonary vasoconstriction (HPV) response; assay: Acute hypoxic rat model: pulmonary (PAP) and systemic (MAP) arterial pressure after treatment; format: in vivo
Method: Surgical procedures and hemodynamic measurements: Rats were anesthetized by intramuscular injection with ketamine/xylazine mixture (75 and 6 mg/kg, respectively). The ventral neck was shaved and a 2 cm incision was made in the right ventral neck where the jugular vein and right carotid artery were isolated via blunt dissection. A polyethylene (PE-50) catheter was introduced into the right carotid to measure systemic blood pressure. A polyvinyl (PV-1) catheter was inserted into the jugular vein and threaded through the right atrium, right ventricle, and into the lumen of the main pulmonary artery to obtain pulmonary arterial pressure. Fluid filled catheters were connected to pressure transducers and monitored continuously with the MP150 data acquisition system (BioPAC Systems; Goleta, Calif.). Blood pressures were recorded every two minutes for data analysis.
After completion of catheter placements and instrumentation for hemodynamic measurements, a 1 cm incision was made above the trachea, and the trachea was isolated by blunt dissection. A tracheotomy was performed approximately 4 mm above the carina and an endotracheal tube specially designed for rats was inserted such that the end of the tube was placed roughly 2 mm distal from the carina. This placement allowed the tip of a Microsprayer® attached to the FMJ-250 syringe (Penn-Century; Philadelphia, Pa.) to protrude approximately 1 mm from the trachea tube and deliver aerosolized emulsion to both right and left lung periphery (FIG. 1A).
Testing efficacy of intrapulmonary delivery of ambrisentan: following instrumentation and tracheotomy, anesthetized rats were placed in a specially designed Plexiglas box built to accommodate exteriorized catheters for completion of the study protocol (depicted graphically in FIG. 1B). Baseline PAP and mean systemic arterial pressure (MAP) were recorded. Next, rats were switched from breathing room air to a hypoxic gas mixture for 10 minutes. Acute hypoxia was induced in rats by exposure to 13% O2 (room air/nitrogen dilution; FIG. 1A). […] This first hypoxic challenge was followed by 20 minutes of room air breathing. […] During this period of room air breathing, rats were allowed to recover from hypoxia for 10 minutes prior to treatment administration via the Microsprayera Treatments were delivered as a 100-microliter bolus aerosol immediately following emulsification to avoid potential phase separation. Following treatment, rats remained breathing room air for an additional 10 minutes to allow drug absorption before being exposed to a second 10-minute hypoxic challenge. Following the second hypoxic challenge, rats returned to breathing room air and blood pressures were monitored for 15 minutes before animals were euthanized with intravenous injection of a euthanasia agent.
Intravenous infusion: As a reference to aid in understanding the response of intrapulmonary delivery of ambrisentan, an additional treatment group for intravenous (IV) infusion of ambrisentan was also investigated (5 mg/kg; 0.5 mL saline). […]
This study was conducted to test the use and efficacy of a water-in-fluorocarbon emulsion of this disclosure to encapsulate ambrisentan or sodium nitrite for intrapulmonary drug delivery. An acute hypoxic rat model was used, and pulmonary and systemic arterial pressure were recorded to determine efficacy of the drug delivery system for treatment of the acute hypoxic pulmonary vasoconstrictive response. […]

[2] = Solubility of ambrisentan in PBS; format: physicochemical; details: pH 7.8, aqueous buffer, pH raised to 7.8
Description: The aqueous solution of ambrisentan was then mixed with Krytox and PFOB and emulsified as previously described.

Compound: COC(c1ccccc1)(c1ccccc1)[C@H](Oc1nc(C)cc(C)n1)C(=O)O [ambrisentan]
- MAP during the second hypoxic challenge ([1]; in vivo): did not further reduce
- adverse effects (systemic arterial pressure during acute hypoxia) ([1]; in vivo): no adverse effects were observed
- solubility [2]: ~100 mg/mL (≈ 264 mM)

Compound: O=NO [sodium nitrite]
- pulmonary arterial pressure compared to the empty emulsion ([1]; acute hypoxia, intrapulmonary emulsion, 0.1 mg/kg): did not significantly change
- adverse effects (systemic arterial pressure during acute hypoxia) ([1]; intrapulmonary emulsion): no adverse effects were observed
- mean pulmonary arterial pressure when exposed to acute hypoxia ([1]; intrapulmonary emulsion, high dose 0.5 mg/kg): significantly reduced
